Source: patent publication US20140371244A1, “METHOD FOR TREATING PROSTATE CANCER BY USE OF PHARMACEUTICAL COMPOSITION CONTAINING A3 ADENOSINE RECEPTOR AGONIST” (priority 2009, published 2014)

Tests used:
PC-3 cells [1] = test: Western blot of cell cycle regulation-related proteins and Wnt signaling in PC-3 cells; format: cell-based, human
Protocol: (§1) A test was carried out to examine whether the inhibitory effects of thio-Cl-IB-MECA on the proliferation of LNCaP cells and PC-3 cells are attributable to regulation of the Wnt signaling pathway.
(§2) Specifically, each type of LNCaP cells and PC-3 cells was diluted with 10% FBS-containing medium to a density of 1.0×10^6 cells per 100 mm culture dish and cultured under the conditions of 37° C. and 5% CO2 for 24 hours, followed by washing twice with PBS. Thio-Cl-IB-MECA was diluted in 10% FBS-containing medium at required concentration, and then 10 ml of the culture medium prepared in the 100 mm culture dish was added thereto and cultured for a given period. The non-adherent cells and adherent cells in the cell medium were collected and washed twice with PBS, after which the cells were suspended in boiling cell lysis buffer and heated at 100° C. for 5 minutes. The cells were cooled and then stored at […], and the stored cells were thawed at 37° C. immediately before use in protein quantification and electrophoresis. Protein quantification was performed using the BCA method, and […] of protein was electrophoresed on 8-12% SDS-polyacrylamide gel at 150 V for 110 minutes. The gel at the desired site was cut and transferred to a PVDF (polyvinylidene fluoride) for 1 hour, and after which it was washed twice with PBST and stirred in blocking buffer at room temperature for 1 hour. Then, the membrane was washed three times with PBST for 5 minutes each time, after which primary antibody was diluted at a ratio of 1:1,000-1:2,000 with 3% skimmed milk/PBST, and it was sealed together with the membrane and incubated with stirring at 4° C. for 12 hours or more. The membrane was washed 2-3 times with PBST for 5 minutes each time, after which HRP-conjugated secondary antibody was diluted at a ratio of 1:1,500-1:2,000 and incubated with the membrane at room temperature for 2-3 hours. The membrane was washed three times with PBST for 5 minutes each time and treated with a Western blot substrate (WESTSAVE Up™), and the produced luminescence was examined using LAS-3000.

PC-3 cells [2] = test: Cell cycle analysis (FACS) in PC-3 cells; format: cell-based, human; settings: 40, 20 and 10 μM, 48 hours
Protocol: (§3) Cells were treated with 40, 20 and 10 μM of thio-Cl-IB-MECA and cultured for 48 hours, and the cell cycle of the cells was analyzed by flow cytometer analysis (FACS). Specifically, cells were diluted with 10% FBS-containing medium to a density of 1.0×10^6 cells per 100 mm culture dish and cultured under the conditions of 37° C. and 5% CO2 for 24 hours, followed by washing twice with PBS. Thio-Cl-IB-MECA was diluted in 10% FBS-containing medium at required concentration, and then 10 ml of the culture medium prepared in the 100 mm culture dish was added thereto and cultured for a given time. The non-adherent cells and adherent cells in the cell medium were collected and washed twice with PBS, after which 500 μL of 100% cold methanol was added thereto and the cells were fixed at 4° C. The cells were washed twice with PBS and allowed to stand in RNase A-containing solution for 30 minutes, after which the cells were stained with propidium iodide (PI) buffer for 5 minutes. After removal of the PI buffer, the cells were transferred into a polystyrene round-bottom tube, and cell cycle analysis was performed by FACScalibur® flow cytometry.

LNCaP cells [3] = test: Western blot of cell cycle regulation-related proteins and Wnt signaling in LNCaP cells; format: cell-based, human
Protocol: as §1, §2

NF-κB = NF-κB signaling (Western blot, EMSA) in LPS-stimulated RAW 264.7 cells; format: cell-based, mouse
Source text: NF-κB is a transcription factor consisting of p65/p50 and is present in an inactivated state by binding to IκB in the cytoplasm, but when it is stimulated by, for example, LPS, it is activated by a series of processes, including the phosphorylation and degradation of IκB by IκB kinase (IKK). When NF-κB state becomes a free state, it moves into the nucleus and binds to the κB-binding site, thereby regulating the expression of genes, such as iNOS, TNF-α and IL-1β, which are involved in inflammatory reactions. Thus, the effect of the inventive composition on the NF-κB signaling system was tested by Western blot analysis and EMSA.
EMSA was performed in order to examine whether NF-κB moves into the nucleus to bind to DNA.

LNCaP cells [4] = test: Cell cycle analysis (FACS) in LNCaP cells; format: cell-based, human; settings: 40, 20 and 10 μM, 48 hours
Protocol: as §3

[5] = test system: Human colorectal cancer HCT116 cells; test: Morphological change of HCT116 cells; format: cell-based; settings: 40 μM, 48 hours
Protocol: Human colorectal cancer HCT116 cells were treated with 40 μM of thio-Cl-IB-MECA and cultured for 48 hours, and then the morphological change of the cells was observed.
Specifically, HCT116 cells were diluted with 10% FBS (Fetal Bovine Serum)-containing medium to a density of 1.0×10^6 cells per 100 mm culture dish and cultured under the conditions of 37° C. and 5% CO2, followed by washing twice with PBS (Phosphate Buffered Saline). Thio-Cl-IB-MECA was diluted to a concentration of 40 μM, and then 10 ml of the culture medium prepared in the 100 mm culture dish was added thereto and incubated for a given time. The morphology of the cells was observed as a function of treatment time and concentration (FIG. 19).

## CNC(=O)[C@H]1S[C@@H](n2cnc3c(NCc4cccc(I)c4)nc(Cl)nc32)[C@H](O)[C@@H]1O [thio-Cl-IB-MECA, 2-chloro-N^6-(3-iodobenzyl)-4′-thioadenosine-5′-N-methyluronamide]
PC-3 cells [1]
  Wnt signaling pathway, PC-3: inhibited the Wnt signaling pathway
  expression and RB phosphorylation of cyclin D, cyclin A, CDK4, c-myc and PCNA, PC-3: inhibited the expression and RB phosphorylation
  expression of p53 and p27, PC-3: increased the expression
PC-3 cells [2]
  G1 phase of cell cycle, PC-3: an increase in the G1 phase appeared
LNCaP cells [3]
  Wnt signaling pathway, LNCaP: inhibited the Wnt signaling pathway
  expression and RB phosphorylation of cyclin D, cyclin A, CDK4, c-myc and PCNA, LNCaP: inhibited the expression and RB phosphorylation
  expression of p53 and p27, LNCaP: increased the expression
NF-κB; 20 μM, 15 minutes after LPS
  degradation of IκB protein: the degradation of IκB protein was inhibited
NF-κB; EMSA
  DNA binding of NF-κB: inhibited the DNA binding of NF-κB
  protein bonding of p65 subunit of NF-κB: inhibited
LNCaP cells [4]
  G1 phase of cell cycle, LNCaP: an increase in the G1 phase appeared
[5]
  number of the cells, HCT116: decreased
